According to publication PMC11435065, “Inhibition of P-Glycoprotein Asymmetrically Alters the In Vivo Exposure Profile of SGC003F: A Novel Guanylate Cyclase Stimulator” (Pharmaceuticals, 2024):
Where two headings read alike, the source gives them in different places.

Test: Tissue distribution of SGC003F in rats with or without tariquidar
Assay type: in vivo
Conditions: rat; for Kp / AUC(0-t): male
Description: A total of 45 male SD rats were randomly divided into 15 groups, with 3 rats in each group; each set of 5 groups constituted a larger group. The first large group served as the control group: SGC003F (p.o., 1 mg/kg) + blank solvent; the second large group was designated as experimental Group I: SGC003F (p.o., 1 mg/kg) + tariquidar (i.v., 7.5 mg/kg); the third group was labeled as Group II: SGC003F (p.o., 1 mg/kg) + tariquidar (p.o., 15 mg/kg). The rats in each group were euthanized at 0.5 h, 1 h, 2 h, 4 h, and 24 h after administration. Blood samples were collected by cardiac puncture and placed in heparin tubes. The plasma was harvested by centrifugation at 2500× g for 10 min at 4 °C. Major organs (brain, heart, liver, kidney, and small intestine) were collected and homogenized with saline at a ratio of 1:4 (w/v). All samples were stored at −40 °C for further analysis.
The tissue plasma partition coefficient at individual time point (KP1) was calculated by the ratio of the tissue concentration to the plasma concentration at each time point, as described in Equation (3) KP1 = Ctissue/Cplasma(3)
The overall tissue plasma partition coefficient (KP2) was calculated by the ratio of the area under the tissue drug-time curve to the area under the plasma drug–time curve, as described in Equation (4) KP2 = AUC(0-t, tissue)/AUC(0-t, plasma)(4)

[1] = SGC003F p.o. 1 mg/kg, tariquidar i.v. 7.5 mg/kg
[2] = SGC003F p.o. 1 mg/kg, tariquidar p.o. 15 mg/kg

- Kp (SD, brain, oral, SGC003F p.o. 1 mg/kg, with tariquidar i.v. 7.5 mg/kg, read-out: KP2, Brain): 0.004
- Kp (SD, brain, oral, SGC003F p.o. 1 mg/kg, with tariquidar p.o. 15 mg/kg, read-out: KP2, Brain): 0.004
- AUC(0-t) (SD, brain, po, 1 mg/kg, SGC003F p.o. 1 mg/kg, single, read-out: AUC(0–24h), Brain): 13.1 ± 2.66 ng·h/mL
- AUC(0-t) (SD, brain, po, 1 mg/kg, SGC003F p.o. 1 mg/kg, with tariquidar i.v. 7.5 mg/kg, read-out: AUC(0–24h), Brain): 31.2 ± 10.9 ng·h/mL
- AUC(0-t) (SD, brain, po, 1 mg/kg, SGC003F p.o. 1 mg/kg, with tariquidar p.o. 15 mg/kg, read-out: AUC(0–24h), Brain): 41.5 ± 14.8 ng·h/mL
- Kp (SD, heart, oral, SGC003F p.o. 1 mg/kg, with tariquidar i.v. 7.5 mg/kg, read-out: KP2, Heart): 0.4 ± 0.02
- Kp (SD, heart, oral, SGC003F p.o. 1 mg/kg, with tariquidar p.o. 15 mg/kg, read-out: KP2, Heart): 0.45 ± 0.09
- AUC(0-t) (SD, heart, po, 1 mg/kg, SGC003F p.o. 1 mg/kg, single, read-out: AUC(0–24h), Heart): 2370 ± 346 ng·h/mL
- Kp (SD, heart, po, 1 mg/kg, SGC003F p.o. 1 mg/kg, single, read-out: KP2 (tissue/plasma AUC), Heart): 0.45 ± 0.04
- AUC(0-t) (SD, heart, po, 1 mg/kg, SGC003F p.o. 1 mg/kg, with tariquidar i.v. 7.5 mg/kg, read-out: AUC(0–24h), Heart): 3060 ± 619 ng·h/mL
- AUC(0-t) (SD, heart, po, 1 mg/kg, SGC003F p.o. 1 mg/kg, with tariquidar p.o. 15 mg/kg, read-out: AUC(0–24h), Heart): 4750 ± 1820 ng·h/mL
- AUC(0-t) (SD, kidney, po, 1 mg/kg, SGC003F p.o. 1 mg/kg, single, read-out: AUC(0–24h), Kidney): 5990 ± 2170 ng·h/mL
- AUC(0-t) (SD, kidney, po, 1 mg/kg, SGC003F p.o. 1 mg/kg, with tariquidar i.v. 7.5 mg/kg, read-out: AUC(0–24h), Kidney): 7870 ± 1570 ng·h/mL
- AUC(0-t) (SD, kidney, po, 1 mg/kg, SGC003F p.o. 1 mg/kg, with tariquidar p.o. 15 mg/kg, read-out: AUC(0–24h), Kidney): 11900 ng·h/mL
- AUC(0-t) (SD, liver, po, 1 mg/kg, SGC003F p.o. 1 mg/kg, single, read-out: AUC(0–24h), Liver): 4870 ± 1050 ng·h/mL
- AUC(0-t) (SD, liver, po, 1 mg/kg, SGC003F p.o. 1 mg/kg, with tariquidar i.v. 7.5 mg/kg, read-out: AUC(0–24h), Liver): 6360 ± 283 ng·h/mL
- AUC(0-t) (SD, liver, po, 1 mg/kg, SGC003F p.o. 1 mg/kg, with tariquidar p.o. 15 mg/kg, read-out: AUC(0–24h), Liver): 9600 ± 1820 ng·h/mL
- AUC(0-t) (SD, plasma, po, 1 mg/kg, SGC003F p.o. 1 mg/kg, single, read-out: AUC(0–24h), Plasma): 5310 ± 798 ng·h/mL
- AUC(0-t) (SD, plasma, po, 1 mg/kg, SGC003F p.o. 1 mg/kg, with tariquidar i.v. 7.5 mg/kg, read-out: AUC(0–24h), Plasma): 7540 ± 1280 ng·h/mL
- AUC(0-t) (SD, plasma, po, 1 mg/kg, SGC003F p.o. 1 mg/kg, with tariquidar p.o. 15 mg/kg, read-out: AUC(0–24h), Plasma): 10200 ng·h/mL
- AUC(0-t) (SD, small intestine, po, 1 mg/kg, SGC003F p.o. 1 mg/kg, single, read-out: AUC(0–24h), Intestine): 2530 ± 988 ng·h/mL
- AUC(0-t) (SD, small intestine, po, 1 mg/kg, SGC003F p.o. 1 mg/kg, with tariquidar i.v. 7.5 mg/kg, read-out: AUC(0–24h), Intestine): 5630 ± 1360 ng·h/mL
- AUC(0-t) (SD, small intestine, po, 1 mg/kg, SGC003F p.o. 1 mg/kg, with tariquidar p.o. 15 mg/kg, read-out: AUC(0–24h), Intestine): 10400 ng·h/mL
- Kp (Sprague-Dawley, brain, po, 1 mg/kg, SGC003F p.o. 1 mg/kg, single, read-out: KP2 (tissue/plasma AUC), Brain): 0.002
- Kp (Sprague-Dawley, kidney, oral, SGC003F p.o. 1 mg/kg, with tariquidar i.v. 7.5 mg/kg, read-out: KP2, Kidney): 1.05 ± 0.14
- Kp (Sprague-Dawley, kidney, oral, SGC003F p.o. 1 mg/kg, with tariquidar p.o. 15 mg/kg, read-out: KP2, Kidney): 1.16 ± 0.26
- Kp (Sprague-Dawley, kidney, po, 1 mg/kg, SGC003F p.o. 1 mg/kg, single, read-out: KP2 (tissue/plasma AUC), Kidney): 1.11 ± 0.24
- Kp (Sprague-Dawley, liver, oral, SGC003F p.o. 1 mg/kg, with tariquidar i.v. 7.5 mg/kg, read-out: KP2, Liver): 0.86 ± 0.11
- Kp (Sprague-Dawley, liver, oral, SGC003F p.o. 1 mg/kg, with tariquidar p.o. 15 mg/kg, read-out: KP2, Liver): 0.95 ± 0.07
- Kp (Sprague-Dawley, liver, po, 1 mg/kg, SGC003F p.o. 1 mg/kg, single, read-out: KP2 (tissue/plasma AUC), Liver): 0.91 ± 0.09
- Kp (Sprague-Dawley, small intestine, oral, SGC003F p.o. 1 mg/kg, with tariquidar i.v. 7.5 mg/kg, read-out: KP2, Intestine): 0.74 ± 0.06
- Kp (Sprague-Dawley, small intestine, oral, SGC003F p.o. 1 mg/kg, with tariquidar p.o. 15 mg/kg, read-out: KP2, Intestine): 1.01 ± 0.19
- Kp (Sprague-Dawley, small intestine, po, 1 mg/kg, SGC003F p.o. 1 mg/kg, single, read-out: KP2 (tissue/plasma AUC), Intestine): 0.47 ± 0.11
- Brain-to-plasma concentration ratio relative to control group (4 h, SGC003F p.o. 1 mg/kg with tariquidar (oral or i.v.)): twice
- Increase of SGC003F concentration in the brain versus SGC003F alone (4 h, SGC003F p.o. 1 mg/kg, tariquidar intravenously 7.5 mg/kg): 3.2 fold
- Increase of SGC003F concentration in the brain versus SGC003F alone (4 h, SGC003F p.o. 1 mg/kg, tariquidar orally 15 mg/kg): 4.2 fold
- Concentration of SGC003F in the brain (24 h, all groups (alone or with tariquidar)): below the limit of quantification
- AUC(0–24h), Brain, Ratio 1 (with Tar (i.v.)/single) [1]: 2.4
- AUC(0–24h), Heart, Ratio 1 (with Tar (i.v.)/single) [1]: ~1.3
- AUC(0–24h), Intestine, Ratio 1 (with Tar (i.v.)/single) [1]: 2.2
- AUC(0–24h), Kidney, Ratio 1 (with Tar (i.v.)/single) [1]: ~1.3
- AUC(0–24h), Liver, Ratio 1 (with Tar (i.v.)/single) [1]: ~1.3
- AUC(0–24h), Plasma, Ratio 1 (with Tar (i.v.)/single) [1]: 1.4
- KP2, Brain, Ratio 1 (with Tar (i.v.)/single) [1]: 2.0
- KP2, Intestine, Ratio 1 (with Tar (i.v.)/single) [1]: 1.6
- AUC(0–24h), Heart, Ratio 2 (with Tar (p.o.)/single) [2]: 2.0
- AUC(0–24h), Kidney, Ratio 2 (with Tar (p.o.)/single) [2]: 2.0
- AUC(0–24h), Liver, Ratio 2 (with Tar (p.o.)/single) [2]: 2.0
- AUC(0–24h), Plasma, Ratio 2 (with Tar (p.o.)/single) [2]: 2.0
- KP2, Brain, Ratio 2 (with Tar (p.o.)/single) [2]: 2.0
- KP2, Heart, Ratio 2 (with Tar (p.o.)/single) [2]: 1.0
- KP2, Intestine, Ratio 2 (with Tar (p.o.)/single) [2]: 2.1
- KP2, Kidney, Ratio 2 (with Tar (p.o.)/single) [2]: 1.0
- KP2, Liver, Ratio 2 (with Tar (p.o.)/single) [2]: 1.0
Structure (SMILES): COC(=O)Nc1c(N)nc(-c2nn(Cc3sccc3F)c3ncc(F)cc23)nc1N [SGC003F]
